According to patent publication US20240139197A1, “INHIBITION OF KDM5A FOR PROMOTING ANTIGEN PRESENTATION, INCREASING CD8+ T CELL INFILTRATION AND BOOSTING ANTI-TUMOR IMMUNE RESPONSE” (The Wistar Institute of Anatomy and Biology, priority 2022, published 2024):

System: H2-K1 on HGS2 cells
Assay: cell surface MHC class I H2-K1 by FACS, HGS2
Type: cell-based, mouse
Settings: HGS2, in response to IFNγ
Source text: FIG. 8A-FIG. 8K show KDM5A regulates antigen processing and presentation pathway. (FIG. 8A) Validation of Kdm5a knockout and upregulation of H3K4me3 in Kdm5a knockout ID8 cells by immunoblot. β-actin expression was used as a loading control. (FIG. 8B) GSEA KEGG enrichment analysis of differentially expressed genes (DEGs) between control and Kdm5a knockout ID8 cells. NES, normalized enrichment score. (FIG. 8C) Enrichment plot of GSEA for antigen processing and presentation pathway. […] (FIG. 8E) Expression of Kdm5a and a loading control β-actin in inducible Kdm5a knockdown HGS2 cells with or without doxycycline treatment determined by immunoblot. (FIG. 8F) Cell surface expression of H2-K1 in HGS2 cells with or without inducible Kdm5a knockdown stimulated with IFNy was determined by FACS analysis. (FIG. 8G) Quantification of FIG. 8F. (FIG. 8H) Cell surface expression of H2-K1 in HGS2 cells treated with or without CPI455 and stimulated with IFNy was determined by FACS analysis. (FIG. 8I) Quantification of FIG. 8H; (FIG. 8J) Correlation between CD8A and HLA-A or HLA-B expression based on RNA-seq analysis in the TCGA HGSOC dataset. […] Data represent mean +SEM; P values were calculated by using a two-tailed Student t test except in FIG. 8J and FIG. 8K by using Pearson r analysis and FIG. 8B and FIG. 8C by using GSEA. […]

CPI-455
MHC class I presence on cell surface: increased MHC class I presence on cell surface
